This is an account of results in ChEMBL document CHEMBL5154648, “Antitumor activity of novel POLA1-HDAC11 dual inhibitors” (Eur J Med Chem, 2022).

Series [1] has as its system MM473. Briefly: Induction of cell cycle arrest in human MM473-Luc cells assessed as accumulation of cells at sub-G1 phase at 1.4 uM after 72 hrs by flow cytometry (reference value: 1.3%). In kind it is functional.
In series [2] the test system is NCI-H460. Briefly: Down-regulation of POLA1 protein expression in human NCI-H460 cells at 0.26 uM measured by Western blot analysis. In kind it is functional, cell-based. (In general: In western blotting, separated proteins are transferred to a membrane and probed.)
The subject of series [3] is NCI-H460. Description: Down-regulation of POLA1 mRNA expression in human NCI-H460 cells at 0.26 uM measured by qRT-PCR assay. In kind it is functional, cell-based. In general terms: In qPCR the cycle at which signal appears reflects the starting amount.
Series [4] relates to NCI-H460. Description: Induction of cell cycle arrest in human NCI-H460 cells assessed as accumulation of cells at G0/1 phase at 0.26 uM after 72 hrs by flow cytometry (reference value: 46.8%). In kind it is functional.
The test system of a further series is A2780. Description: Induction of cell cycle arrest in human A2780 cells assessed as accumulation of cells at sub-G1 phase at 0.95 uM after 72 hrs by flow cytometry (reference value: 1.6%). It counts as functional. (In general: Flow cytometry measures light scatter and fluorescence of single cells or particles in a stream.)
Series [5] concerns MM473. Briefly: Induction of cell cycle arrest in human MM473-Luc cells assessed as accumulation of cells at G2/M phase at 1.4 uM after 72 hrs by flow cytometry (reference value: 11.7%). It counts as functional.
In series [6] the test system is NCI-H460. Description: Induction of cell cycle arrest in human NCI-H460 cells assessed as accumulation of cells at G2/M phase at 0.26 uM after 72 hrs by flow cytometry (reference value: 21.1%). It counts as functional.
The nature of series [7]: Toxicity in mouse xenografted with human H460-R9A cells assessed as body weight loss at 50 mg/kg, po qd administered 5 times a week for 3 to 4 weeks. It counts as organism-based. Conditions: in vivo, time 3-4 weeks.
The next series concerns Mus musculus. Description: Inhibition of POLA1 in mouse B16 cells xenografted C57BL/6 mouse assessed as increase in IFN-alpha levels at 50 mg/kg, po administered twice a day for 5 days measured by ELISA assay. In kind it is functional, organism-based. To be noted: time 5.0 day.
In series [8] the test system is NCI-H460. Briefly: Induction of cell cycle arrest in human NCI-H460 cells assessed as accumulation of cells at sub-G1 phase at 0.25 uM after 72 hrs by flow cytometry (reference value: 1.1%). In kind it is functional.
The target in series [9] is T1, Histone deacetylase 11 (Homo sapiens) (UniProt Q96DB2).
T1 sequence (whole entry): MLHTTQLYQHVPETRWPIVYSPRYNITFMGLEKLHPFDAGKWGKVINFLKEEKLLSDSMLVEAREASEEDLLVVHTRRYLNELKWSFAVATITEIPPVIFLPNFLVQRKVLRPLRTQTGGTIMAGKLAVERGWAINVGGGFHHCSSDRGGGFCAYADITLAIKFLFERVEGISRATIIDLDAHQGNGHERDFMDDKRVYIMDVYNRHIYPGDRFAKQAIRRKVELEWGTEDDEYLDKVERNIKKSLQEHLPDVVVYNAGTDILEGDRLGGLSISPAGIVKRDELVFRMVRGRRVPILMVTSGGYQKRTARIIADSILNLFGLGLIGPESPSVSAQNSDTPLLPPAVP
Description: Inhibition of HDAC11 in human MM473 cells at 0.1 to 0.4 uM assessed as increase in p21 level and measured by Western blot analysis. It counts as cell-based. Conditions: dose 0.1-0.4 µM.

The test system of series [10] is NCI-H460. Briefly: Induction of cell cycle arrest in human NCI-H460 cells assessed as accumulation of cells at G0/1 phase at 0.25 uM after 72 hrs by flow cytometry (reference value: 46.8%). In kind it is functional.
In series [11] the test system is NCI-H460. Description: Down-regulation of POLA1 mRNA expression in human NCI-H460 cells at 0.25 uM measured by qRT-PCR assay. It counts as functional, cell-based.
Series [12] is described as follows: Induction of cell cycle arrest in human H460-R9A cells assessed as accumulation of cells at G2/M phase at 2.8 uM after 72 hrs by flow cytometry (reference value: 15.4%). In kind it is functional.
The nature of series [13]: Toxicity in mouse xenografted with human NCI-H460 cells assessed as body weight loss at 20 mg/kg, po qd administered 5 times a week for 3 to 4 weeks. In kind it is organism-based. Conditions: in vivo, time 3-4 weeks.

The source made the active and inactive calls. No cut-off for these calls is given here.

As for `CC(Oc1ccc(-c2ccc(C=CC(=O)O)cc2)cc1C12CC3CC(CC(C3)C1)C2)C(=O)NO` (stereo not given), the Activity in the series with MM473 [1] turned out to be 10.2%; with NCI-H460 [4], 10.9%; with A2780, 23%; with MM473 [5], 16.1%; with NCI-H460 [6], 7.8%. Further, the outcome in the series on NCI-H460 [2] and in the series with NCI-H460 [3] was Active.

`O=C(O)C=Cc1ccc(-c2ccc(OCC(=O)NO)c(C34CC5CC(CC(C5)C3)C4)c2)cc1`: the Activity in [7] was 0%; in the series on NCI-H460 [8] it was 12.1%; with NCI-H460 [10], 16.3%; in [12], 12.9%. For the same compound, the inhibition result (in the series on Mus musculus; in [9]) was “Active” throughout. Moreover, the result with NCI-H460 [11] was Active.

`O=C(O)C=Cc1ccc(-c2ccc(O)c(C34CC5CC(CC(C5)C3)C4)c2)cc1`: the Activity in [13] was 0%.
